According to the NIST ThermoML archive (doi:10.1021/je200371n):

Details: Gas

S [hydrogen sulfide]
Mass density=0.74 kg/m3
Details | viscosity [mPa·s]
291.61 K | 0.01186
292.3 K | 0.01186
292.46 K | 0.01187
292.77 K | 0.01188
296.89 K | 0.01207
297.01 K | 0.01206
323.94 K | 0.01319
323.96 K | 0.01318
350.47 K | 0.01429
350.59 K | 0.0143
378.01 K | 0.01543
378.19 K | 0.01544
405.76 K | 0.01656
405.86 K | 0.01657
433.66 K | 0.01769
433.81 K | 0.0177
461.72 K | 0.01881
461.92 K | 0.01882
490.09 K | 0.01993
490.2 K | 0.01992
518.68 K | 0.021
518.75 K | 0.021
542.48 K | 0.0219
542.61 K | 0.0219
565.19 K | 0.02274
565.29 K | 0.02275
593.95 K | 0.02379
594.02 K | 0.02379
623.07 K | 0.02482
623.19 K | 0.02482
652.3 K | 0.02584
652.32 K | 0.02584
681.36 K | 0.02682
682.03 K | 0.02684

C [methane]
Details | viscosity [mPa·s]
289.05 K, Mass density=0.498 kg/m3 | 0.01081
290.41 K, Mass density=0.498 kg/m3 | 0.01083
291.93 K, Mass density=0.344 kg/m3 | 0.01089
292.96 K, Mass density=0.344 kg/m3 | 0.01092
296.43 K, Mass density=0.498 kg/m3 | 0.01103
296.57 K, Mass density=0.498 kg/m3 | 0.01105
297.08 K, Mass density=0.344 kg/m3 | 0.01106
323.43 K, Mass density=0.498 kg/m3 | 0.01189
323.86 K, Mass density=0.344 kg/m3 | 0.01191
350.55 K, Mass density=0.344 kg/m3 | 0.01273
350.64 K, Mass density=0.498 kg/m3 | 0.01272
378.15 K, Mass density=0.344 kg/m3 | 0.01356
378.25 K, Mass density=0.498 kg/m3 | 0.01355
405.88 K, Mass density=0.344 kg/m3 | 0.01436
406.03 K, Mass density=0.498 kg/m3 | 0.01436
433.83 K, Mass density=0.344 kg/m3 | 0.01514
434.02 K, Mass density=0.498 kg/m3 | 0.01514
461.75 K, Mass density=0.498 kg/m3 | 0.0159
461.85 K, Mass density=0.344 kg/m3 | 0.01591
490.13 K, Mass density=0.344 kg/m3 | 0.01666
490.15 K, Mass density=0.498 kg/m3 | 0.01665
518.8 K, Mass density=0.498 kg/m3 | 0.0174
518.83 K, Mass density=0.344 kg/m3 | 0.01739
542.36 K, Mass density=0.498 kg/m3 | 0.01798
542.6 K, Mass density=0.344 kg/m3 | 0.01799
565.1 K, Mass density=0.498 kg/m3 | 0.01854
565.38 K, Mass density=0.344 kg/m3 | 0.01856
593.84 K, Mass density=0.498 kg/m3 | 0.01924
594.08 K, Mass density=0.344 kg/m3 | 0.01925
623.05 K, Mass density=0.498 kg/m3 | 0.01993
623.33 K, Mass density=0.344 kg/m3 | 0.01995
652.07 K, Mass density=0.498 kg/m3 | 0.02061
652.41 K, Mass density=0.344 kg/m3 | 0.02062
681.93 K, Mass density=0.498 kg/m3 | 0.02127
682.14 K, Mass density=0.344 kg/m3 | 0.0213
